Marks after values point to notes of the source that are not given here.
Assays:
Format in all cases: physicochemical
[1] = Equilibration of Forms 1 and 2, singularly and as mixtures, in MEK and THF alone and with 5% water; conditions: 5-10 °C, both equilibration temperatures
Text: The influence of the initial polymorphic composition on the fate of samples was investigated by equilibration of the either the single polymorphs or an equal mixture of both in anhydrous MEK and THF as well as in the same solvents doped with 5% water.
The results obtained (Table 13) reveal that in anhydrous media the two polymorphs retain their structural integrity, if present singularly (Table 13, Entries 1, 2, 4 and 5). […] (Table 13, Entry 4) which may be attributable to the presence of traces of moisture in a highly hygroscopic solvent.
The results observed when 5% water was admixed to the two solvents indicate that the predominance of the two forms reversed under these conditions, taking kinetic factors into account. In aqueous MEK (5% water) the single polymorphs were again unchanged for the duration of the experiment (Table 13, Entries 7 and 8). In contrast, the binary polymorphic mixture converted into Form 1 in this medium (Table 13, Entry 9). In aqueous THF (5% water) the dominance of Form 1 as the most preferred polymorph was especially evident. In this environment the suspension of Form 1 remained unchanged (Table 13, Entry 10), consistent with the outcome observed for aq MEK under the same conditions.
However, in THF doped with 5% water, both the suspension comprising the binary mixture, as well as that composed of the Form 2 polymorph alone, were transformed into suspensions containing only Form 1 (Table 13, Entries 11 and 12).

[2] = Fate of Form 2 slurried in THF and THF/water mixtures, XRPD
Description: To investigate the generality of this unforeseen transformation a similar experiment was carried out in THF and in THF/water mixtures. […] At 25° C. those mixtures comprising 10% and 20% water returned Form 1 after 4 and 24 hours respectively (Table 10, Entries 2 and 3).

[3] = Fate of Form 2 slurried in MEK/water mixtures, XRPD; conditions: MEK, 25 °C, 24 hours
Description: (Table 12). It was observed that Form 2 integrity was maintained for at least 24 hours at the lower temperature until the water content exceeded 6%, despite an increase in solubility of Compound I from 19 to 30 mg/ml (data not shown).

For Cc1cc(N2CCN(c3ccc(C(=O)Nc4ccc(F)cc4)cc3)CC2)ccc1OC[C@@H]1CO[C@@](Cn2cncn2)(c2ccc(F)cc2F)C1 [Form 1, 4-(4-(4-(((3R,5R)-5-((1H-1,2,4-triazol-1-yl)methyl)-5-(2,4-difluorophenyl)tetrahydrofuran-3-yl)methoxy)-3-methylphenyl)piperazin-1-yl)-N-(4-fluorophenyl)benzamide], the “Form by XRPD Post Equilibration” value ([1]; MEK (anhydrous)) was 1, the “Form by XRPD Post Equilibration” value ([1]; MEK/5% Water) was 1 and the “Form by XRPD Post Equilibration” value ([1]; THF (anhydrous), Form 1 input: some evidence of Form 2 at 10 °C) was 1^b. For the same compound, the “Form by XRPD Post Equilibration” value ([1]; THF/5% Water) was 1.

In the case of Cc1cc(N2CCN(c3ccc(C(=O)Nc4ccc(F)cc4)cc3)CC2)ccc1OC[C@@H]1CO[C@@](Cn2cncn2)(c2ccc(F)cc2F)C1 [Form 2, 4-(4-(4-(((3R,5R)-5-((1H-1,2,4-triazol-1-yl)methyl)-5-(2,4-difluorophenyl)tetrahydrofuran-3-yl)methoxy)-3-methylphenyl)piperazin-1-yl)-N-(4-fluorophenyl)benzamide], the “Polymorphic Form by XRPD” value ([2]; THF, water 0 vol %, 25 °C, 1 hr) is reported as 2, the “Polymorphic Form by XRPD” value ([2]; THF, water 0 vol %, 25 °C, 4 hr) is reported as 2 and the “Polymorphic Form by XRPD” value ([2]; THF, water 0 vol %, 50 °C, 1 hr) is reported as 2. For the same compound, the “Polymorphic Form by XRPD” value ([2]; THF, water 0 vol %, 50 °C, 4 hr) was 2, the “Polymorphic Form by XRPD” value ([2]; THF/water, water 10 vol %, 25 °C, 1 hr) was 2 and the “Polymorphic Form by XRPD” value ([2]; THF/water, water 10 vol %, 25 °C, 4 hr) was 1. The “Polymorphic Form by XRPD” value ([2]; THF/water, water 10 vol %, 25 °C, 24 hr) was 1, the “Polymorphic Form by XRPD” value ([2]; THF/water, water 10 vol %, 50 °C, 1 hr) was 1 and the “Polymorphic Form by XRPD” value ([2]; THF/water, water 10 vol %, 50 °C, 4 hr) was 1. For the same compound, the “Polymorphic Form by XRPD” value ([2]; THF/water, water 10 vol %, 50 °C, 24 hr) was 1, the “Polymorphic Form by XRPD” value ([2]; THF/water, water 20 vol %, 25 °C, 1 hr) was 2 and the “Polymorphic Form by XRPD” value ([2]; THF/water, water 20 vol %, 25 °C, 4 hr) was 2. The “Polymorphic Form by XRPD” value ([2]; THF/water, water 20 vol %, 25 °C, 24 hr) was 1, the “Polymorphic Form by XRPD” value ([2]; THF/water, water 20 vol %, 50 °C, 1 hr) was 1 and the “Polymorphic Form by XRPD” value ([2]; THF/water, water 20 vol %, 50 °C, 4 hr) was 1. For the same compound, the “Polymorphic Form by XRPD” value ([2]; THF/water, water 20 vol %, 50 °C, 24 hr) was 1, the “Polymorphic Form by XRPD” value ([2]; THF/water, water 40 vol %, 25 °C, 1 hr) was 2 and the “Polymorphic Form by XRPD” value ([2]; THF/water, water 40 vol %, 25 °C, 4 hr) was 2. For the same compound, the “Polymorphic Form by XRPD” value ([2]; THF/water, water 40 vol %, 25 °C, 24 hr) was 2, the “Polymorphic Form by XRPD” value ([2]; THF/water, water 40 vol %, 50 °C, 1 hr) was 1 and the “Polymorphic Form by XRPD” value ([2]; THF/water, water 40 vol %, 50 °C, 4 hr) was 1. For the same compound, the “Polymorphic Form by XRPD” value ([2]; THF/water, water 40 vol %, 50 °C, 24 hr) was 1, the “Polymorphic Form by XRPD” value ([3]; water 1 % vol) was 2 and the “Polymorphic Form by XRPD” value ([3]; water 2 % vol) was 2. The “Polymorphic Form by XRPD” value ([3]; water 4 % vol) was 2, the “Polymorphic Form by XRPD” value ([3]; water 6 % vol) was 2 and the “Polymorphic Form by XRPD” value ([3]; water 8 % vol) was 1.
